Structures can show the parent of a compound that is named as a salt.

This test has as its target T1, GPR119 G protein-coupled receptor (Homo sapiens, UniProt Q8TDV5).
T1 construct: expressed in transfected cells; host or cells: Flp-In-T-REx 293 cells, tetracycline induced
T1 sequence (Q8TDV5 1-335): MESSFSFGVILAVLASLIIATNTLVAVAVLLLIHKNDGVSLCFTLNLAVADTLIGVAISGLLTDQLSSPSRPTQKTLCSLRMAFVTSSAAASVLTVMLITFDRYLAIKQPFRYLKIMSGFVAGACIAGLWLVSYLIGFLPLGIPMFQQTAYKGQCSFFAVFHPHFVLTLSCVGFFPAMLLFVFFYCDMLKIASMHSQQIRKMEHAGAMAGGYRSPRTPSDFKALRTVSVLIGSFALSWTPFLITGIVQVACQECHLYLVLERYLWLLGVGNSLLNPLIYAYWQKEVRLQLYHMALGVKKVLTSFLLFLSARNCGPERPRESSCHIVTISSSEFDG
Briefly: Human Tet-Inducible cAMP Assay (hEC50, Table 1). Type of test: cell-based. Details: IA: scale not given here. The note with it: for IA: IA not defined. The procedure:
Human Tet-Inducible cAMP Assay
Cell lines using the Flp-In-T-REx 293 tetracycline inducible gene expression system are cultured in culture medium comprising the following components: DMEM#11965, 10% FBS, 2 mM L-glutamine, 200 ug/ml Hygromycin B, and 15 ug/ml blasticidin.
For cAMP assays, cells are plated on 96 well plates (e.g., BD Falcon: REF 353948, black side, clear bottom, TC surface) at a density of about 4.5×10^4 cells per well in growth medium containing 1.0 ug/ml tetracycline (1.0 mg/ml stock). The cells are then incubated for 48 hours at 37° C.
Following the incubation, the growth medium is removed from the wells and the wells rinsed (once) with the assay buffer included in the Hit Hunter cAMP kit (100 μl/well). Following the wash, 20 μl of assay buffer is added to each well, followed by addition of 10 μl of a 3× concentration compound working solution. The solution is then mixed. The final concentration range of compound is from about 10^−5M to about 10^−11M. The reagents are then incubated at 37° C. at 5% CO2 for 1 hour.
The manufacturer's protocol may be followed for cAMP determination. The Hit Hunter cAMP kit protocol is outlined for the HIT-T15 cAMP assays described above.

The EC50 is the midpoint of the concentration-response curve. Regarding `CC(C)(C)OC(=O)N1CCC(N2CCOc3c(Nc4ccc(C(N)=O)cc4Cl)ncnc32)CC1` [Example 47, tert-Butyl 4-(4-(4-carbamoyl-2-chlorophenylamino)-6H-pyrimido[5,4-b][1,4]oxazin-8(7H)-yl)piperidine-1-carboxylate], the EC50 was determined as 163 nM and the IA amounted to 0.78.
In turn, `CC(C)OC(=O)N1CCC(N2CCOc3c(Nc4ccc5c(c4)OCO5)ncnc32)CC1` [Example 132, Isopropyl 4-(4-(benzo[d][1,3]dioxol-5-ylamino)-6H-pyrimido[5,4-b][1,4]oxazin-8(7H)-yl)piperidine-1-carboxylate] yielded an EC50 of 3400 nM and an IA of 0.37.
Turning to `CS(=O)(=O)c1ccc(Nc2ncnc3c2OCCN3C2CCN(c3nc4ccccc4s3)CC2)c(F)c1` [Example 18, 8-(1-(Benzo[d]thiazol-2-yl)piperidin-4-yl)-N-(2-fluoro-4-(methylsulfonyl)phenyl)-7,8-dihydro-6H-pyrimido[5,4-b][1,4]oxazin-4-amine], the EC50 was 198 nM and the IA worked out at 0.46.
On to `Cc1ccc(Nc2ncnc3c2OCC(=O)N3C2CCN(C(=O)OC(C)C)CC2)cn1` [Example 72, iso-Propyl 4-(4-(6-methylpyridin-3-ylamino)-7-oxo-6H-pyrimido[5,4-b][1,4]oxazin-8(7H)-yl)piperidine-1-carboxylate], for which it took 8580 nM to reach a half-maximal effect (EC50) and the IA worked out at 0.34.
As for `CCC(C)OC(=O)N1CCC(N2CCOc3c(Nc4ccc(S(C)(=O)=O)cc4F)ncnc32)CC1` (racemic) [Example 146, (±)-sec-Butyl 4-(4-(2-fluoro-4-(methylsulfonyl)phenylamino)-6H-pyrimido[5,4-b][1,4]oxazin-8(7 H)-yl)piperidine-1-carboxylate, TFA salt], a half-maximal effect (EC50) was put at 8.52 nM and the IA came out at 0.88.
`Cc1ncccc1Nc1cccc2c1OCCN2C1CCN(C(=O)OC(C)(C)C)CC1` [Example 76, tert-Butyl 4-(8-(2-methylpyridin-3-ylamino)-2H-benzo[b][1,4]oxazin-4 (3H)-yl)piperidine-1-carboxylate]: the concentration for a half-maximal effect (EC50) stood at 3390 nM and the IA is listed as 0.38.
For `CC(C)OC(=O)N1CCC(N2C(=O)COc3c(Nc4cccnc4Cl)ncnc32)CC1` [Example 127, Isopropyl 4-(4-(2-chloropyridin-3-ylamino)-7-oxo-6H-pyrimido[5,4-b][1,4]oxazin-8(7H)-yl)piperidine-1-carboxylate], the EC50 was 6180 nM and the IA stood at 0.52.
On to `Cc1cc(C#N)ccc1Nc1ncnc2c1OCCN2C1CCN(C(=O)OC(C)C)CC1` [Example 134, Isopropyl 4-(4-(4-cyano-2-methylphenylamino)-6H-pyrimido[5,4-b][1,4]oxazin-8(7H)-yl)piperidine-1-carboxylate], for which the EC50 came out at 163 nM and the IA was determined as 0.59.
`CC(C)OC(=O)N1CCC(N2CCOc3c(Nc4ccc(C(N)=O)cc4Cl)ncnc32)CC1` [Example 49, iso-Propyl 4-(4-(4-carbamoyl-2-chlorophenylamino)-6H-pyrimido[5,4-b][1,4]oxazin-8(7H)-yl)piperidine-1-carboxylate] came in with an EC50 of 196 nM and an IA of 0.67.
The like results for `CC(C)(OC(=O)N1CCC(N2CCOc3c(Nc4ccc(S(C)(=O)=O)cc4F)ncnc32)CC1)C(F)(F)F` [Example 143] were, in that order, 9.74 nM and 0.41.
In turn, `Cc1ccc(Nc2ncnc3c2OCC(=O)N3C2CCN(C(=O)OC(C)(C)C)CC2)cn1` [Example 69, tert-Butyl 4-(4-(6-methylpyridin-3-ylamino)-7-oxo-6H-pyrimido[5,4-b][1,4]oxazin-8(7H)-yl)piperidine-1-carboxylate] returned an EC50 of 4310 nM and an IA of 0.35.
Compound `CC(C)(C)OC(=O)N1CCC(N2C(=O)COc3c(Nc4ccc(S(C)(=O)=O)cc4F)ncnc32)CC1` [Example 26, tert-Butyl 4-(4-(2-fluoro-4-(methylsulfonyl)phenylamino)-7-oxo-6H-pyrimido[5,4-b][1,4]oxazin-8(7H)-yl)piperidine-1-carboxylate] showed an EC50 of 8.06 nM and an IA of 0.51.
`COc1ccc(Nc2ncnc3c2OCCN3C2CCN(C(=O)OC(C)C)CC2)c(F)c1` [Example 15, iso-Propyl 4-(4-(2-fluoro-4-methoxyphenylamino)-6H-pyrimido[5,4-b][1,4]oxazin-8(7H)-yl)piperidine-1-carboxylate] returned an EC50 of 188 nM and an IA of 0.48.
For `COc1ccc(Nc2ncnc3c2OCCN3C2CCN(C(=O)OC(C)C)CC2)cc1` [Example 128, Isopropyl 4-(4-(4-methoxyphenylamino)-6H-pyrimido[5,4-b][1,4]oxazin-8(7H)-yl)piperidine-1-carboxylate], it took 3590 nM to reach a half-maximal effect (EC50) and the IA came to 0.7.
`CC(C)(C)OC(=O)N1CCC(N2CCOc3c(Nc4ccc(S(C)(=O)=O)cc4Cl)ncnc32)CC1` [Example 7, tert-Butyl 4-(4-(2-chloro-4-(methylsulfonyl)phenylamino)-6H-pyrimido[5,4-b][1,4]oxazin-8(7H)-yl)piperidine-1-carboxylate] registered an EC50 of 2.78 nM and an IA of 0.81.
In the case of `CS(=O)(=O)c1ccc(Nc2ncnc3c2OCCN3C2CCN(C(=O)OCC(F)(F)F)CC2)c(F)c1` [Example 145, 2,2,2-Trifluoroethyl 4-(4-(2-fluoro-4-(methylsulfonyl)phenylamino)-6H-pyrimido[5,4-b][1,4]oxazin-8(7H)-yl)piperidine-1-carboxylate, TFA salt], the concentration giving a half-maximal response (EC50) was determined as 11.4 nM and the IA was determined as 0.87.
The like results for `CC(C)OC(=O)N1CCC(N2CCOc3c(Nc4ccncc4Cl)ncnc32)CC1` [Example 120, Isopropyl 4-(4-(3-chloropyridin-4-ylamino)-6H-pyrimido[5,4-b][1,4]oxazin-8(7H)-yl)piperidine-1-carboxylate] were, in that order, 181 nM and 0.45.
As to `CC(C)OC(=O)N1CCC(N2C(=O)CCc3c(Nc4ccc(S(C)(=O)=O)cc4F)ncnc32)CC1` [Example 118, Isopropyl 4-(4-(2-fluoro-4-(methylsulfonyl)phenylamino)-7-oxo-6,7-dihydropyrido[2,3-d]pyrimidin-8 (5H)-yl)piperidine-1-carboxylate], the EC50 came to 179 nM and the IA was 0.63.
`CC(C)(C)OC(=O)N1CCC(N2CCOc3c(Nc4ccc(-n5ccnc5)cc4Cl)ncnc32)CC1` [Example 154, tert-Butyl 4-(4-(2-chloro-4-(1H-imidazol-1-yl)phenylamino)-6H-pyrimido[5,4-b][1,4]oxazin-8(7H)-yl)piperidine-1-carboxylate]: a half-maximal response (EC50) required 12.9 nM and the IA was 0.65.
`COC(=O)c1ccc(Nc2ncnc3c2OCCN3C2CCN(C(=O)OC(C)(C)C)CC2)c(Cl)c1` [Example 45, tert-Butyl 4-(4-(2-chloro-4-(methoxycarbonyl)phenylamino)-6H-pyrimido[5,4-b][1,4]oxazin-8(7H)-yl)piperidine-1-carboxylate] registered an EC50 of 158 nM and an IA of 0.63.
`Cc1ncccc1Oc1ncnc2c1OCCN2C1CCN(C(=O)OC(C)C)CC1` [Example 25, iso-Propyl 4-(4-(2-methylpyridin-3-yloxy)-6H-pyrimido[5,4-b][1,4]oxazin-8(7H)-yl)piperidine-1-carboxylate] showed an EC50 of 4520 nM and an IA of 0.27.
In turn, `CC(C)(C)OC(=O)N1CCC(N2CCCOc3c(Nc4c(Cl)cncc4Cl)ncnc32)CC1` [Example 89, tert-Butyl 4-(4-(3,5-dichloropyridin-4-ylamino)-7,8-dihydropyrimido[5,4-b][1,4]oxazepin-9(6H)-yl)piperidine-1-carboxylate] displayed a concentration giving a half-maximal response (EC50) of 10.3 nM and an IA of 0.65.
`CC(C)(C)OC(=O)N1CCC(N2CCCOc3c(Nc4ccncc4)ncnc32)CC1` [Example 100, tert-Butyl 4-(4-(pyridin-4-ylamino)-7,8-dihydropyrimido[5,4-b][1,4]oxazepin-9(6H)-yl)piperidine-1-carboxylate] displayed an EC50 of 3450 nM and an IA of 0.53.
In the case of `CC(C)(C)OC(=O)N1CCC(N2CCOc3c(Nc4c(Cl)cncc4Cl)ncnc32)CC1` [Example 55, tert-Butyl 4-(4-(3,5-dichloropyridin-4-ylamino)-6H-pyrimido[5,4-b][1,4]oxazin-8(7H)-yl)piperidine-1-carboxylate], the EC50 stood at 11.1 nM and the IA is reported as 0.72.

Source of the values: patent US8513265B2, “[6,6] and [6,7]-bicyclic GPR119 G protein-coupled receptor agonists” (Bristol-Myers Squibb Company, priority 2011, dated 2013).
